Here are results for 30 compounds from US9745328B2, “Flap modulators” (JANSSEN PHARMACEUTICA NV, priority 2013, dated 2017).

pIC50, pKi: −log10 of the molar value. Structures can show the parent of a compound that is named as a salt. Where two headings read alike, the source gives them in different places.

One assay concerns the target human FLAP (Homo sapiens (Human), UniProt P20292). As to the kind of experiment: FLAP binding assay (HTRF format). The method in brief:
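Read-out is the HTRF ratio. Each reported figure averages two assay plates on which samples were tested in duplicate.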
A general note: TR-FRET usually uses a lanthanide donor and a delayed reading to cut background.

In assay [1] the test system is leukotriene pathway in human whole blood (LTB4). Description: Human whole blood assay (LTB4 levels after calcium ionophore A23187 stimulation). The assay is classed as cell-based. The method, then:
The ability of the compounds of the present invention to treat a FLAP-mediated disease and/or disorder, or associated symptoms or complications thereof, was determined using the following procedures. Binding assay data represent the average value obtained from two different assay plates, with samples run in duplicate on each plate. Human whole blood assay data represent a single replicate on an assay plate using whole blood from at least one healthy donor.
An in vitro cellular assay was performed using human whole blood collected in heparin-containing tubes, which was used to test the ability of compounds to modulate the leukotriene pathway in human whole blood. The blood was diluted 1:1 in RPMI medium, pre-incubated for 15 min at 37° Celsius with test compounds at various concentrations, and then stimulated with calcium ionophore, A23187 (7 μg/mL), for 30 min at 37° Celsius. The samples were then centrifuged and plasma was removed. The plasma was diluted in assay buffer and LTB4 levels were measured using a commercial kit (Enzo Life Sciences). The concentration of each compound that was required for half-maximal inhibition (modulation) of recombinant enzyme activity (IC50) was calculated by a 4-parameter equation using the program GraphPad Prism (GraphPad software).

Setting [2] is: Table 6 (additional runs), human FLAP wild type.
Where [3] appears, read: Homo sapiens, Table 6 (additional runs); human whole blood diluted 1:1, A23187 stimulation; read-out: Human Whole Blood LTB4 IC50 1:1.
Setting [4] is: human FLAP wild type, Table 6 (additional runs).
[5] abbreviates: Homo sapiens, human whole blood diluted 1:1, A23187 stimulation; Table 6 (additional runs); read-out: Human Whole Blood LTB4 IC50 1:1.

human FLAP, sequence (P20292 whole entry): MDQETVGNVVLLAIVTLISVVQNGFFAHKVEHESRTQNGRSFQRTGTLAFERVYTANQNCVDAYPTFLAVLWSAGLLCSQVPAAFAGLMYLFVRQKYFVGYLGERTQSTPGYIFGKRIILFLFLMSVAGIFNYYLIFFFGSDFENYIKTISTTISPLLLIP

`Nc1cnc(-c2ccc(-c3ccccc3S(=O)(=O)N3CCCCC3)cc2F)cn1` [Example 43, 5-[3-fluoro-2′-(piperidin-1-ylsulfonyl)biphenyl-4-yl]pyrazin-2-amine]: the negative-log Ki (pKi) (usually the Ki on a negative log10 scale, so that one unit is a factor of ten) on human FLAP (setting [2]) is 8.52. The pIC50 – broadly, the IC50 on a negative log10 scale, so that one unit is a factor of ten – in assay [1] (setting [3]) was 7.42.
With `Nc1cnc(-c2ccc(-c3ccccc3-c3ccnc(N)n3)cc2F)cn1` [Example 868, 4-[4′-(5-Aminopyrazin-2-yl)-3′-fluorobiphenyl-2-yl]pyrimidin-2-amine], the negative logarithm of the Ki (pKi) on human FLAP (setting [4]) is 7.67. For the same compound, in assay [1] (setting [5]), the negative logarithm of the IC50 (pIC50) is 6.46.
For `CC(O)CN1CCC(S(=O)(=O)c2ncccc2-c2ccc(-c3cnc(N)cn3)c(F)c2)CC1` (racemic) [Example 905, 1-[4-({3-[4-(5-Aminopyrazin-2-yl)-3-fluorophenyl]pyridin-2-yl}sulfonyl)piperidin-1-yl]propan-2-ol], in that order: 7.24 and 7.28.
Take `Nc1cnc(-c2ccc(-c3ccccc3O)cc2F)cn1` [Example 476, 4′-(5-aminopyrazin-2-yl)-5′-fluorobiphenyl-2-ol]: on human FLAP (setting [4]), the pKi was 7.62. For the same compound, in assay [1] (setting [5]), the pIC50 is 6.46.
For `Nc1cnc(-c2ccc(-c3ccccc3-c3cnn(CCO)c3)cc2F)cn1` [Example 874], in that order: 7.29 and 6.45.
For `Nc1ncc(-c2ccc(-c3cccnc3Oc3ccccc3)cc2F)cn1` [Example 895, 5-[2-Fluoro-4-(2-phenoxypyridin-3-yl)phenyl]pyrimidin-2-amine], in that order: 7.88 and 6.65.
In the case of `Nc1ncc(-c2ccc(-c3cccnc3S(=O)(=O)C3CCOCC3)cc2F)cn1` [Example 831, 5-{2-Fluoro-4-[2-(tetrahydro-2H-pyran-4-ylsulfonyl)pyridin-3-yl]phenyl}pyrimidin-2-amine formic acid salt], at human FLAP (setting [4]), the pKi is 6.83. Also, in assay [1] (setting [5]), the negative logarithm of the IC50 (pIC50) was 7.14.
On to `CS(=O)(=O)N1CCC(S(=O)(=O)c2ncccc2-c2ccc(-c3cnc(N)nc3)c(F)c2)CC1` [Example 909, 5-(2-Fluoro-4-(2-{[1-(methylsulfonyl)piperidin-4-yl]sulfonyl}pyridin-3-yl)phenyl]pyrimidin-2-amine], for which, on human FLAP (setting [4]), the pKi is 6.60. In addition, in assay [1] (setting [5]), the pIC50 is 6.93.
In turn, `Nc1ncc(-c2ccc(-c3cccnc3S(=O)(=O)c3ccccc3)cc2F)cn1` [Example 898, 5-{2-Fluoro-4-[2-(phenylsulfonyl)pyridin-3-yl]phenyl}pyrimidin-2-amine] had a pKi on human FLAP (setting [4]) of 7.10. Also, the pIC50 in assay [1] (setting [5]) was 6.03.
On human FLAP (setting [2]), `CCCCCCS(=O)(=O)c1ccccc1-c1ccc(-c2cnc(N)cn2)c(F)c1` [Example 198, 5-[3-Fluoro-2′-(hexylsulfonyl)biphenyl-4-yl]pyrazin-2-amine] gave a negative logarithm of the Ki (pKi) of 7.14. Further, in assay [1] (setting [3]), the negative logarithm of the IC50 (pIC50) was 6.09.
For `Nc1cnc(-c2ccc(-c3ccccc3S(=O)(=O)N3CCC(O)CC3)cc2F)cn1` [Example 67, 1-{[4′-(5-Aminopyrazin-2-yl)-3′-fluorobiphenyl-2-yl]sulfonyl}piperidin-4-ol], in that order: 8.38 and 7.77.
`Nc1ccc(-c2ccccc2-c2ccc(-c3cnc(N)cn3)c(F)c2)cn1` [Example 861, 5-[2′-(6-Aminopyridin-3-yl)-3-fluorobiphenyl-4-yl]pyrazin-2-amine] showed a negative-log Ki (pKi) on human FLAP (setting [4]) of 8.40. For the same compound, in assay [1] (setting [5]), the pIC50 was 7.35.
Turning to `Nc1cnc(-c2ccc(-c3ccccc3S(=O)(=O)N[C@H]3c4ccccc4C[C@H]3O)cc2F)cn1` [Example 160, 4′-(5-aminopyrazin-2-yl)-3′-fluoro-N-((1S,2R)-2-hydroxy-2,3-dihydro-1H-inden-1-yl)-[1,1′-biphenyl]-2-sulfonamide], the negative-log Ki (pKi) on human FLAP (setting [2]) was 9.40; at human FLAP (human FLAP wild type, a calculated value of 0.000 indicates Ki less than 1 nM), above 9.00. For the same compound, in assay [1] (setting [3]), the pIC50 is 8.28.
The compound `CC(C)(C)NS(=O)(=O)c1ccccc1-c1ccc(-c2cnc(N)c(Cl)n2)c(F)c1` [Example 441, 4′-(5-Amino-6-chloropyrazin-2-yl)-N-tert-butyl-3′-fluorobiphenyl-2-sulfonamide] showed a pKi at human FLAP (setting [4]) of 9.10. Moreover, the pIC50 in assay [1] (setting [5]) is 8.19.
For `Nc1cnc(-c2ccc(-c3ccccc3Oc3ccc(C(=O)O)cc3)cc2F)cn1` [Example 888, 4-{[4′-(5-Aminopyrazin-2-yl)-3′-fluorobiphenyl-2-yl]oxy}benzoic acid], in that order: 9.15 and 6.44.
`N#CCn1cc(-c2ccccc2-c2ccc(-c3cnc(N)nc3)c(F)c2)cn1` [Example 875, {4-[4′-(2-Aminopyrimidin.-5-yl)-3′-fluorobiphenyl-2-yl]-1H-pyrazol-yl}acetonitrile] showed a pKi at human FLAP (setting [4]) of 6.77. Besides, the negative-log IC50 (pIC50) in assay [1] (setting [5]) was 6.07.
Consider `CNc1ncc(-c2ccccc2-c2ccc(-c3cnc(N)nc3)c(F)c2)cn1` [Example 866, 5-[4′-(2-Aminopyrimidin-5-yl)-3′-fluorobiphenyl-2-yl]-N-methylpyrimidin-2-amine], for which, at human FLAP (setting [4]), the pKi was 6.77. The pIC50 in assay [1] (setting [5]) was 6.27.
The compound `CS(=O)(=O)N1CCC(S(=O)(=O)c2ncccc2-c2ccc(-c3cnc(N)cn3)c(F)c2)CC1` [Example 908, 5-[2-Fluoro-4-(2-{[1-(methylsulfonyl)piperidin-4-yl]sulfonyl}pyridin-3-yl)phenyl]pyrazin-2-amine] had a pKi at human FLAP (setting [4]) of 7.58. The pIC50 in assay [1] (setting [5]) is 7.36.
`C[C@H](NS(=O)(=O)c1ccccc1-c1cnc(-c2cnc(N)nc2)c(F)c1)C(F)(F)F` [Example 877, 2-[6-(2-Aminopyrimidin-5-yl)-5-fluoropyridin-3-yl]-N-[(1S)-2,2,2-trifluoro-1-methylethyl]penzenesulfonamide as the hydrochloride salt] showed a negative logarithm of the Ki (pKi) on human FLAP (setting [4]) of 8.33. In addition, the pIC50 in assay [1] (setting [5]) is 7.98.
For `Nc1cnc(-c2ccc(-c3ccccc3Oc3cc(N)ncn3)cc2F)cn1` [Example 535, 6-{[4′-(5-Aminopyrazin-2′yl)-3′-fluorobiphenyl-2-yl]oxy}pyrimidin-4′-amine], in that order: 8.82 and 7.81.
For `Nc1ccc(-c2ccccc2-c2ccc(-c3cnc(N)nc3)c(F)c2)cn1` [Example 865, 5-[2′-(6-Aminopyridin-3-yl)-3-fluorobiphenyl-4-yl]pyrimidin-2-amine], in that order: 7.02 and 6.72.
In the case of `CCN(CC)S(=O)(=O)c1ccccc1-c1ccc(-c2cnc3[nH]ccc3n2)c(F)c1` [Example 373, N-Diethyl-3′-fluoro-4′-(5H-pyrrolo[2,3-b]pyrazin-2-yl)biphenyl-2-sulfonamide], the pKi on human FLAP (setting [2]) is 9.10. For the same compound, the pIC50 in assay [1] (setting [3]) was 8.18.
`Nc1cnc(-c2ccc(-c3cccnc3Oc3ccccc3)cc2F)cn1` [Example 894, 5-[2-Fluoro-4-(2-phenoxypyridin-3-yl)phenyl]pyrazin-2-amine] gave a negative logarithm of the Ki (pKi) on human FLAP (setting [4]) of 8.42. In addition, in assay [1] (setting [5]), the negative logarithm of the IC50 (pIC50) is 6.85.
In turn, `Nc1cnc(-c2ccc(-c3ccccc3S(=O)(=O)NC[C@H](O)c3ccccc3)cc2F)cn1` [Example 117, (R)-4′-(5-aminopyrazin-2-yl)-3′-fluoro-N-(2-hydroxy-2-phenylethyl)-[1,1′-biphenyl]-2-sulfonamide] showed a pKi on human FLAP (setting [2]) of 9.15. The pIC50 in assay [1] (setting [3]) is 8.18.
For the compound `Nc1ncc(-c2ccc(-c3ccc(C(F)(F)F)cc3C(=O)N3CCOCC3)cc2F)cn1` [Example 522, 5-[3-Fluoro-2′-(morpholin-4-ylcarbonyl)-4′-(trifluoromethyl)biphenyl-4-yl]pyrimidin-2-amine], the pKi at human FLAP (setting [4]) is 6.54. For the same compound, in assay [1] (setting [5]), the negative logarithm of the IC50 (pIC50) is 6.58.
For `Nc1cnc(-c2ccc(-c3ccc(C(F)(F)F)cc3N)cc2F)cn1` [Example 892, 5-[2′-Amino-3-fluoro-4′-(trifluoromethyl)biphenyl-4-yl]pyrazin-2-amine], in that order: 7.11 and 6.14.
The compound `CN1CCN(S(=O)(=O)c2cc(C(F)(F)F)ccc2-c2ccc(-c3cnc(N)cn3)c(F)c2)CC1` [Example 212, 5-{3-Fluoro-2′-[(4-methylpiperazin-1-yl)sulfonyl]-4′-(trifluoromethyl)biphenyl-4-yl}pyrazin-2-amine] had a pKi at human FLAP (setting [2]) of 9.10. Also, the negative logarithm of the IC50 (pIC50) in assay [1] (setting [3]) is 8.28.
With `Nc1cnc(-c2ccc(-c3ccccc3S(=O)(=O)N3CCC[C@@H]3CO)cc2F)cn1` [Example 91, (R)-(1-((4′-(5-aminopyrazin-2-yl)-3′-fluoro-[1,1′-biphenyl]-2-yl)sulfonyl)pyrrolidin-2-yl)methanol], on human FLAP (setting [2]), the pKi was 8.33. Besides, the negative logarithm of the IC50 (pIC50) in assay [1] (setting [3]) is 7.42.
As for `N#CC1CCN(S(=O)(=O)c2ccccc2-c2ccc(-c3cnc(N)cn3)c(F)c2)CC1` [Example 64, 1-{[4′-(5-Aminopyrazin-2-yl)-3′-fluorobiphenyl-2-yl]sulfonyl}piperidine-4-carbonitrile], the negative logarithm of the Ki (pKi) on human FLAP (setting [2]) is 8.72. In addition, the pIC50 in assay [1] (setting [3]) was 7.88.
With `Nc1ncc(-c2ncc(-c3ccccc3S(=O)(=O)NCCO)cc2F)cn1` [Example 882, 2-[6-(2-Aminopyrimidin-5-yl)-5-fluoropyridin-3-yl]-N-(2-hydroxyethyl)benzenesulfonamide], on human FLAP (setting [4]), the negative-log Ki (pKi) was 6.78. Further, the pIC50 in assay [1] (setting [5]) is 7.16.
